Experimental findings from patent US9624216B2, “Quinolinone five-membered heterocyclic compounds as mutant-isocitrate dehydrogenase inhibitors” (Forma Therapeutics, Inc., priority 2015, dated 2017) are described below.

pIC50: −log10 of the molar value.

The target in series [1] is IDH1-R132H recombinant protein (Homo sapiens, UniProt O75874, R132H). In words: IDH1-R132H enzymatic assay (NADPH consumption, diaphorase/resazurin readout). The format is biochemical. As to conditions: 30 nM IDH1-R132H, inhibition of NADPH consumption; read-out: Enzyme IDH1 R132H IC50. How it is done:
(§1) IDH1-R132H and IDH1-R132C Enzymatic Assay
(§2) Assays were performed in a 384-well black plate. An aliquot of 250 nL of compound was incubated with 10 μL of 30 nM IDH1-R132H or 10 nM IDH1-R132C recombinant protein in assay buffer (50 mM Tris pH=7.5, 150 mM NaCl, 5 mM MgCl2, 0.1% (w/v) Bovine Serum Albumin, and 0.01% Triton X-100) in each well at 25° C. for 15 minutes. After the plate was centrifuged briefly, an aliquot of 10 μL of 2 mM α-ketoglutarate and 20 μM NADPH solution prepared in assay buffer was then added to each well and the reaction was maintained at 25° C. for 45 minutes. An aliquot of 10 μL of diaphorase solution (0.15 U/mL diaphorase and 30 μM Resazurin in assay buffer) was added to each well. The plate was maintained at 25° C. for 15 minutes and then read on a plate reader with excitation and emission wavelengths at 535 nm and 590 nm, respectively. The IC50 of a given compound was calculated by fitting the dose response curve of inhibition of NADPH consumption at a given concentration with the four parameter logistic equation.
(In general: Alamar Blue is a resazurin reagent that responds to reducing activity.)

The target in series [2] is IDH1-R132C recombinant protein (Homo sapiens, UniProt O75874, R132C). In words: IDH1-R132C enzymatic assay (NADPH consumption, diaphorase/resazurin readout). The format is biochemical. As to conditions: 10 nM IDH1-R132C, inhibition of NADPH consumption; read-out: Enzyme IDH1 R132C IC50. As to the method:
as §1, §2

In series [3] the target is T1, HCT116 isogenic IDH1-R132H mutant cells (Homo sapiens, UniProt O75874, R132H).
T1 construct: HCT116 isogenic IDH1-R132H and IDH1-R132C mutant cells; endogenous in cells; host or cells: HCT116 isogenic IDH1-R132H mutant cells (kept under G418)
In words: Cellular 2-HG assay using HCT116 mutant IDH1 cells (R132H). The series is classed as cell-based. As to conditions: cellular 2-HG inhibition, 24 hours, RapidFire mass spectrometry. How it is done:
(§3) Cellular 2-HG Assay Using HCT116 Mutant IDH1 Cells
(§4) HCT116 isogenic IDH1-R132H and IDH1-R132C mutant cells were cultured in growth media (McCoy's 5A, 10% fetal bovine serum, 1× antibiotic-antimycotic solution and 0.3 mg/mL G418) in 5% CO2 in an incubator at 37° C. To prepare the assay, cells were trypsinized and resuspended in assay media (McCoy's 5A with no L-glutamine, 10% fetal bovine serum, 1× antibiotic-antimycotic solution and 0.3 mg/mL G418). An aliquot of 10,000 cells/100 μL was transferred to each well of a clear 96-well tissue culture plate. The cells were incubated in 5% CO2 at 37° C. in an incubator overnight to allow for proper cell attachment. An aliquot of 50 μL of compound containing assay media were then added to each well and the assay plate was kept in 5% CO2 at 37° C. in an incubator for 24 hours. The media was then removed from each well and 150 μL of a methanol/water mixture (80/20 v/v) was added to each well. The plates were kept at −80° C. freezer overnight to allow for complete cell lysis. An aliquot of 125 μL of extracted supernatant was analyzed by RapidFire high-throughout-mass spectrometry (Agilent) to determine the cellular 2-HG level. The IC50 of a given compound was calculated by fitting the dose response curve of cellular 2-HG inhibition at a given concentration with the four parameter logistic equation

Series [4] deals with T2, HCT116 isogenic IDH1-R132C mutant cells (Homo sapiens, UniProt O75874, R132C).
T2 construct: HCT116 isogenic IDH1-R132H and IDH1-R132C mutant cells; endogenous in cells; host or cells: HCT116 isogenic IDH1-R132C mutant cells (kept under G418)
Kind of series: Cellular 2-HG assay using HCT116 mutant IDH1 cells (R132C). The following applies: cellular 2-HG inhibition, 24 hours, RapidFire mass spectrometry. The series is classed as cell-based. How it is done: as §3, §4

Sequence of IDH1-R132H recombinant protein (O75874 whole entry R132H): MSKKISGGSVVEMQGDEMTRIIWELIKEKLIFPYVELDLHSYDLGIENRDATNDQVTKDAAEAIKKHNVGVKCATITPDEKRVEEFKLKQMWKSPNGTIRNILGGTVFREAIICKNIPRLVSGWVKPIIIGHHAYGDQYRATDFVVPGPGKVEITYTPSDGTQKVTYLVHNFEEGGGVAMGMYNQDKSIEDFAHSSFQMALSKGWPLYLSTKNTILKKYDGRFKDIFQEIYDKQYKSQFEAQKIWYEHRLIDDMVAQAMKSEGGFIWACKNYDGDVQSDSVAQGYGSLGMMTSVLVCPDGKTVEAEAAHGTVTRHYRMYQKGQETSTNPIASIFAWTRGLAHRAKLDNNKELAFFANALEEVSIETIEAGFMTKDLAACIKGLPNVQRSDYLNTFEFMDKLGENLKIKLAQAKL
Sequence of IDH1-R132C recombinant protein (O75874 whole entry R132C): as the sequence (O75874 whole entry R132H) above, with H132C counted along it
T2 sequence (O75874 2-414 R132C limits assumed): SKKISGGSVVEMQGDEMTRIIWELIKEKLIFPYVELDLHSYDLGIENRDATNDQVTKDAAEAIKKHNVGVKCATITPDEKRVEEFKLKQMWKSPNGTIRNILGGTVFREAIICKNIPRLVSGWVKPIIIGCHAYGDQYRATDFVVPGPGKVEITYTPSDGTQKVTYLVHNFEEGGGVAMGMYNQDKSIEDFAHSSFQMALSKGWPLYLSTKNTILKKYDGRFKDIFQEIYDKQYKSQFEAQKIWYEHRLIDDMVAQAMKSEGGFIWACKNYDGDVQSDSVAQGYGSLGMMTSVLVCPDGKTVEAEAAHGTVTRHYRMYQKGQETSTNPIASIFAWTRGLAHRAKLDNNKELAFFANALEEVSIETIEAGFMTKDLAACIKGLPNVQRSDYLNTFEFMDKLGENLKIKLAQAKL
T1 sequence (O75874 2-414 R132H limits assumed): as the sequence (O75874 2-414 R132C limits assumed) above, with C131H counted along it

One may read the pIC50 as −log10 of the IC50, conventionally taken in molar units. Consider `CC(Nc1ncc(C#N)s1)c1cc2cc(Cl)c(OCc3ccccn3)cc2[nH]c1=O` (racemic) [Compound I-3, 2-((1-(6-chloro-2-oxo-7-(pyridin-2-ylmethoxy)-1,2-dihydroquinolin-3-yl)ethyl)amino)thiazole-5-carbonitrile], for which the negative logarithm of the IC50 (pIC50) was > 7.00 in series [1], 6.00 to 7.00 in series [2], 6.00 to 7.00 in series [3] and > 7.00 in series [4].

Broadly, the melting point is the temperature, or range, at which the solid turns liquid. Regarding `C[C@H](Nc1ncc(C#N)s1)c1cc2cc(Cl)ccc2[nH]c1=O` [Compound I-1, (S)-2-((1-(6-chloro-2-oxo-1,2-dihydroquinolin-3-yl)ethyl)amino)thiazole-5-carbonitrile], the melting point was 211 to 213 °C (dec.). In addition, in series [1], the pIC50 is > 7.00. Moreover, in series [2], the pIC50 was 6.00 to 7.00. Moreover, in series [3], the pIC50 is 6.00 to 7.00. In series [4], this compound gave a pIC50 of 6.00 to 7.00.

Turning to `COc1cc2[nH]c(=O)c(C(C)Nc3ncc(C#N)s3)cc2cc1Cl` (stereo not drawn) [Compound I-2, 2-((1-(6-chloro-7-methoxy-2-oxo-1,2-dihydroquinolin-3-yl)ethyl)amino)thiazole-5-carbonitrile], the pIC50 in series [1] was > 7.00; in series [2] it was 6.00 to 7.00; in series [3], > 7.00; in series [4] it was 6.00 to 7.00.

In the case of `C[C@H](Nc1ncc(C#N)s1)c1cc2cc(Cl)c(OCc3ccccn3)cc2[nH]c1=O` [Compound I-4, (S)-2-((1-(6-chloro-2-oxo-7-(pyridin-2-ylmethoxy)-1,2-dihydroquinolin-3-yl)ethyl)amino)thiazole-5-carbonitrile], the negative logarithm of the IC50 (pIC50) in series [1], in series [2], in series [3] and in series [4] was > 7.00 throughout.

For `C[C@@H](Nc1ncc(C#N)s1)c1cc2cc(Cl)c(OCc3ccccn3)cc2[nH]c1=O` [Compound I-5, (R)-2-((1-(6-chloro-2-oxo-7-(pyridin-2-ylmethoxy)-1,2-dihydroquinolin-3-yl)ethyl)amino)thiazole-5-carbonitrile], the pIC50 in series [1] was 6.00 to 7.00; in series [2], 5.00 to 6.00.

Regarding `CC(Nc1ncc(C#N)s1)c1cc2cc(Cl)cnc2[nH]c1=O` (stereo not drawn) [Compound I-6, 2-((1-(6-chloro-2-oxo-1,2-dihydro-1,8-naphthyridin-3-yl)ethyl)amino)thiazole-5-carbonitrile], the pIC50 in series [1] was 6.00 to 7.00.

Regarding `Cc1nc(N[C@@H](C)c2cc3cc(Cl)ccc3[nH]c2=O)sc1C#N` [Compound I-7, (S)-2-((1-(6-chloro-2-oxo-1,2-dihydroquinolin-3-yl)ethyl)amino)-4-methylthiazole-5-carbonitrile], the negative-log IC50 (pIC50) in series [1] was > 7.00; in series [2] it was 6.00 to 7.00; in series [3], > 7.00; in series [4], 6.00 to 7.00.

`CC(=O)Nc1cnc(N[C@@H](C)c2cc3cc(Cl)ccc3[nH]c2=O)s1` [Compound I-8, (S)-N-(2-((1-(6-chloro-2-oxo-1,2-dihydroquinolin-3-yl)ethyl)amino)thiazol-5-yl)acetamide]: the pIC50 is 5.00 to 6.00 in series [1] and < 5.00 in series [2].

Consider `CCOC(=O)c1sc(N[C@@H](C)c2cc3cc(Cl)ccc3[nH]c2=O)nc1C` [Compound I-9, (S)-ethyl 2-((1-(6-chloro-2-oxo-1,2-dihydroquinolin-3-yl)ethyl)amino)-4-methylthiazole-5-carboxylate], for which the pIC50 in series [1] is 5.00 to 6.00.

As to `C[C@H](Nc1ncc(C(N)=O)s1)c1cc2cc(Cl)ccc2[nH]c1=O` [Compound I-10, (S)-2-((1-(6-Chloro-2-oxo-1,2-dihydroquinolin-3-yl)ethyl)amino)thiazole-5-carboxamide], the pIC50 in series [1] was 6.00 to 7.00; in series [2], 5.00 to 6.00.

As to `Cc1nc(N[C@@H](C)c2cc3cc(Cl)ccc3[nH]c2=O)sc1C(N)=O` [Compound I-11, (S)-2-((1-(6-chloro-2-oxo-1,2-dihydroquinolin-3-yl)ethyl)amino)-4-methylthiazole-5-carboxamide], the negative-log IC50 (pIC50) in series [1] is > 7.00; in series [2], 6.00 to 7.00; in series [3], > 7.00; in series [4], 6.00 to 7.00.

Take `C[C@H](Nc1nsc(N2CCOC2=O)n1)c1cc2cc(Cl)ccc2[nH]c1=O` [Compound I-12, 6-chloro-3-[(1S)-1-{[5-(2-oxo-1,3-oxazolidin-3-yl)-1,2,4-thiadiazol-3-yl]amino}ethyl]-1,2-dihydroquinolin-2-one]: the pIC50 in series [1] is < 5.00.

Turning to `O=c1[nH]c2ccc(Cl)cc2cc1CNc1nc(-c2ccccn2)cs1` [Compound I-13, 6-chloro-3-({[4-(pyridin-2-yl)-1,3-thiazol-2-yl]amino}methyl)-1,2-dihydroquinolin-2-one], in series [1], the pIC50 was 5.00 to 6.00.

Consider `O=c1[nH]c2ccc(Cl)cc2cc1CNc1nc(-c2ccc(F)c(F)c2)cs1` [Compound I-14, 6-chloro-3-({[4-(3,4-difluorophenyl)-1,3-thiazol-2-yl]amino}methyl)-1,2-dihydroquinolin-2-one], for which the pIC50 in series [1] was 5.00 to 6.00.

Take `COc1ccc2[nH]c(=O)c(CNc3nc4ccccc4s3)cc2c1` [Compound I-15, 3-{[(1,3-benzothiazol-2-yl)amino]methyl}-6-methoxy-1,2-dihydroquinolin-2-one]: in series [1], the negative-log IC50 (pIC50) was < 5.00.

Regarding `CCc1c(C)sc(NCc2cc3cc(Cl)ccc3[nH]c2=O)c1C#N` [Compound I-16, 2-{[(6-chloro-2-oxo-1,2-dihydroquinolin-3-yl)methyl]amino}-4-ethyl-5-methylthiophene-3-carbonitrile], the pIC50 in series [1] is < 5.00.

With `COc1ccc2[nH]c(=O)c(CNc3nc(C)c(C)s3)cc2c1` [Compound I-17, 3-{[(dimethyl-1,3-thiazol-2-yl)amino]methyl}-6-methoxy-1,2-dihydroquinolin-2-one], in series [1], the pIC50 is < 5.00.
